Assays:
H358 (KRAS G12C) = assay: Tumor cell proliferation inhibition assay (CellTiter-Glo), H358; assay type: cell-based, Human; details: 10% fetal bovine serum
Protocol: (§1) The H358, H23 or MIA-Paca2 cells were digested, centrifuged and resuspended, and the cell density was measured with a Scepter automatic cell counter. Cells were diluted to a solution containing 44,000 cells per milliliter, then added to a 96-well culture plate at 90 μL per well. The 96-well plate was placed in a 5% CO2 incubator at 37° C., and after the cells were cultured for 24 hours, different concentrations of the compounds to be tested were added. Cells were incubated with compounds in the presence of 10% fetal bovine serum for 72 hours. The inhibition of cell growth was assessed by measuring ATP levels by using the CellTiter-Glo Luminescent Cell Viability Assay Kit (details in manufacturer's instructions). In brief, 30 μL of CellTiter-Glo reagent was added to each well and the plate was shaken for 10 minutes to induce cell lysis, then the fluorescent signal was detected and recorded with a Fluoroskan Ascent FL (Thermo). Maximum signal values were obtained from cells treated with DMSO for 72 hours. Minimum signal values were obtained with medium only (zero cell number). Inhibition rate %=(maximum signal value-compound signal value)/(maximum signal value-minimum signal value)×100%. Data were processed by using Graphpad prism5 software. IC50 values were calculated using a sigmoidal dose-response curve.

H23 (KRAS G12C) = assay: Tumor cell proliferation inhibition assay (CellTiter-Glo), H23; assay type: cell-based, Human; details: 10% fetal bovine serum
Protocol: as §1

MIA-Paca2 (KRAS G12C) = assay: Tumor cell proliferation inhibition assay (CellTiter-Glo), MIA-Paca2; assay type: cell-based, Human; details: 10% fetal bovine serum
Protocol: as §1

KRAS-G12C/SOS1 = target: T1, KRAS-G12C/SOS1 (Homo sapiens, UniProt P01116, G12C); assay: HTRF KRAS-G12C/SOS1 binding assay; details: 2 hours room temperature
T1 construct: purchased Cisbio #63ADK000CB16PEG
T1 sequence (P01116 1-188 isoform P01116-2 G12C): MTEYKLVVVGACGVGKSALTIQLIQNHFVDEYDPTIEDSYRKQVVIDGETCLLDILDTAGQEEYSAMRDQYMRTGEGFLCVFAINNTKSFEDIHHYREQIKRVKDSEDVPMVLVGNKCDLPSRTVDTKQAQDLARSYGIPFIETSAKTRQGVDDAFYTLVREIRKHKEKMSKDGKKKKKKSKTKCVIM
Protocol: 2) Diluted the compound to be tested with diluent into 10× stock solution, starting from a concentration of 10000 nM, diluting in 4-fold gradient and a total of 6 concentration gradients.
After incubated at room temperature for 15 minutes, added pre-mixed 5 uL of anti-Tag1-Tb^3+ and 5 uL of anti-Tag2-XL665. Sealed the plate and incubated at room temperature for 2 hours.
Data were processed by using Graphpad prism software.

[1] = Pharmacokinetic (PK) experiment in rats by gavage; assay type: in vivo; details: rat, plasma, po, male SD rats, 20 mg/kg; for AUC(0-t): read-out: AUC0-24
Protocol: Male SD rats, weighing 180-250 g, were fasted overnight before the test and stomach administrated with the test compound at 20 mg/kg. 15 minutes, 30 minutes, and 1, 2, 4, 6, 8, and 24 hours after administration, blood was taken from the end of the tail of the fracture, about 0.3 mL per time point, then placed in a centrifuge tube containing K2-EDTA, and centrifuged (2000 g, 10 min, at 4° C.). Plasma was collected and stored in an ultra-low temperature freezer at −80° C. 50 μL of plasma samples were vortexed with 135 μL of acetonitrile (containing 1 μg/mL internal standard) for protein precipitation and centrifuged, and the supernatant was collected for LC-MS/MS analysis.
After the rats oral administrated with the Pyridopyrimidinone compounds provided by the present disclosure, the absorption is good, and the blood exposure is relatively high. […] Cmax refers to the maximum plasma concentration, T1/2 is the half-life, AUC0-24 refers to the area under the 0-24 hour time-concentration curve, and AUC0-inf refers to the area under the 0-Inf time-concentration curve.

| SMILES | IC50 (H358 (KRAS G12C); 72 hours) [nM] | IC50 (H23 (KRAS G12C); 72 hours) [nM] | IC50 (MIA-Paca2 (KRAS G12C); 72 hours) [nM] | melting point [°C] | IC50 (KRAS-G12C/SOS1) [nM] | AUC(0-inf) [1] [ng·h/mL] | Cmax [1] [ng/mL] | Tmax [1] [h] | half-life [1] [h] | AUC(0-t) [1] [ng·h/mL] | IC50 (H358 (KRAS G12C); Homo sapiens, NCI-H358, 72 h) [nM] | IC50 (MIA-Paca2 (KRAS G12C); Homo sapiens, MIA PaCa-2, 72 h) [nM] | IC50 (H23 (KRAS G12C); Homo sapiens, 72 h) [nM] |
| --- | --- | --- | --- | --- | --- | --- | --- | --- | --- | --- | --- | --- | --- |
| C=CC(=O)N1CCN(c2nc(=O)n(-c3c(C)ccnc3C(C)C)c3nc(-c4c(F)c(F)cc5ccoc45)c(F)cc23)[C@@H](C)C1 (atropisomer, axis not shown; (P)) [Compound 74-2, 4-((S)-4-acryloyl-2-methylpiperazin-1-yl)-7-(5,6-difluorobenzofuran-7-yl)-6-fluoro-1(P)-(2-isopropyl-4-methylpyridin-3-yl)pyrido[2,3-d]pyrimidin-2(1H)-one] | > 500 | 100 to 500 | > 500 | – | – | – | – | – | – | – | – | – | – |
| C=CC(=O)N1C[C@H](C)N(c2nc(=O)n(-c3c(C)ccnc3C(C)C)c3nc(-c4c(F)ccc5ccoc45)c(Cl)cc23)C[C@H]1C (atropisomer, axis not shown; (P)) [Compound 90-2, 4-((2S,5R)-4-acryloyl-2,5-dimethylpiperazin-1-yl)-6-chloro-7-(6-fluorobenzofuran-7-yl)-1(P)-(2-isopropyl-4-methylpyridin-3-yl)pyrido[2,3-d]pyrimidin-2(1H)-one] | 50 to 100 | < 10 | 50 to 100 | 152 to 161 | – | – | – | – | – | – | – | – | – |
| C=CC(=O)N1C[C@H](C)N(c2nc(=O)n(-c3c(C)ccnc3C(C)C)c3nc(-c4c(F)c(F)cc5ccoc45)c(F)cc23)C[C@H]1C (atropisomer, axis not shown; (P)) [Compound 91-2, 4-((2S,5R)-4-acryloyl-2,5-dimethylpiperazin-1-yl)-7-(5,6-difluorobenzofuran-7-yl)-6-fluoro-1(P)-(2-isopropyl-4-methylpyridin-3-yl)pyrido[2,3-d]pyrimidin-2(1H)-one] | > 500 | 50 to 100 | > 500 | 161 to 173 | – | – | – | – | – | – | – | – | – |
| C=CC(=O)N1CCN(c2nc(=O)n(-c3c(C)ccnc3C(C)C)c3nc(-c4c(F)c(F)cc5ccoc45)c(Cl)cc23)[C@@H](C)C1 (atropisomer, axis not shown; (P)) [Compound 103-2, 4-((S)-4-acryloyl-2-methylpiperazin-1-yl)-6-chloro-7-(5,6-difluorobenzofuran-7-yl)-1(P)-(2-isopropyl-4-methylpyridin-3-yl)pyrido[2,3-d]pyrimidin-2(1H)-one] | 100 to 500 | 10 to 50 | 100 to 500 | – | – | – | – | – | – | – | – | – | – |
| C=CC(=O)N1C[C@H](C)N(c2nc(=O)n(-c3c(C)ccnc3C(C)C)c3nc(-c4c(F)c(F)cc5ccoc45)c(Cl)cc23)C[C@H]1C (atropisomer, axis not shown; (P)) [Compound 104-2, 4-((2S,5R)-4-acryloyl-2,5-dimethylpiperazin-1-yl)-6-chloro-7-(5,6-difluorobenzofuran-7-yl)-1(P)-(2-isopropyl-4-methylpyridin-3-yl)pyrido[2,3-d]pyrimidin-2(1H)-one] | 100 to 500 | 10 to 50 | 100 to 500 | 153 to 162 | – | – | – | – | – | – | – | – | – |
| C=CC(=O)N1C[C@H](C)N(c2nc(=O)n(-c3c(C)ccnc3C(C)C)c3nc(-c4c(F)ccc5ccoc45)c(F)cc23)C[C@H]1C (single isomer, unassigned) [Compound 89-1] | – | – | – | 275 to 277 | 50 to 100 | 9020 | 3200 | 1 | 3.1 | 9010 | 10 to 50 | 10 to 50 | – |
| C=CC(=O)N1CCN(c2nc(=O)n(-c3c(C)ccnc3C(C)C)c3nc(-c4c(F)ccc5ccoc45)c(F)cc23)[C@@H](C)C1 [Compound 70, 4-((S)-4-acryloyl-2-methylpiperazin-1-yl)-6-fluoro-7-(6-fluorobenzofuran-7-yl)-1-(2-isopropyl-4-methylpyridin-3-yl)pyrido[2,3-d]pyrimidin-2(1H)-one] | – | – | – | – | 100 to 500 | – | – | – | – | – | 10 to 50 | 10 to 50 | – |
| C=CC(=O)N1CCN(c2nc(=O)n(-c3c(C)ccnc3C(C)C)c3nc(-c4c(F)c(F)cc5ccoc45)c(F)cc23)[C@@H](C)C1 [Compound 74, 4-((S)-4-acryloyl-2-methylpiperazin-1-yl)-7-(5,6-difluorobenzofuran-7-yl)-6-fluoro-1-(2-isopropyl-4-methylpyridin-3-yl)pyrido[2,3-d]pyrimidin-2(1H)-one] | 10 to 50 | < 10 | 50 to 100 | – | – | – | – | – | – | – | – | – | – |
| C=CC(=O)N1CCN(c2nc(=O)n(-c3c(C)ccnc3C(C)C)c3nc(-c4c(F)ccc5c4OCC5)c(F)cc23)[C@@H](C)C1 [Compound 79, 4-((S)-4-acryloyl-2-methylpiperazin-1-yl)-6-fluoro-7-(6-fluoro-2,3-dihydrobenzofuran-7-yl)-1-(2-isopropyl-4-methylpyridin-3-yl)pyrido[2,3-d]pyrimidin-2(1H)-one] | – | – | – | – | 100 to 500 | – | – | – | – | – | 10 to 50 | 10 to 50 | – |
| C=CC(=O)N1C[C@H](C)N(c2nc(=O)n(-c3c(C)ccnc3C(C)C)c3nc(-c4c(F)ccc5ccoc45)c(F)cc23)C[C@H]1C [Compound 89, 4-((2S,5R)-4-acryloyl-2,5-dimethylpiperazin-1-yl)-6-fluoro-7-(6-fluorobenzofuran-7-yl)-1-(2-isopropyl-4-methylpyridin-3-yl)pyrido[2,3-d]pyrimidin-2(1H)-one] | – | – | 10 to 50 | 147 to 149 | – | 14100 | 4300 | 1 | 2.11 | 14000 | 10 to 50 | – | – |
| C=CC(=O)N1C[C@H](C)N(c2nc(=O)n(-c3c(C)ccnc3C(C)C)c3nc(-c4c(F)c(F)cc5ccoc45)c(F)cc23)C[C@H]1C [Compound 91, 4-((2S,5R)-4-acryloyl-2,5-dimethylpiperazin-1-yl)-7-(5,6-difluorobenzofuran-7-yl)-6-fluoro-1-(2-isopropyl-4-methylpyridin-3-yl)pyrido[2,3-d]pyrimidin-2(1H)-one] | 10 to 50 | < 10 | 50 to 100 | – | – | – | – | – | – | – | – | – | – |
| C=CC(=O)N1CCN(c2nc(=O)n(-c3c(C)ccnc3C(C)C)c3nc(-c4c(F)ccc5c4OCO5)c(Cl)cc23)[C@@H](C)C1 [Compound 97, 4-((S)-4-acryloyl-2-methylpiperazin-1-yl)-6-chloro-7-(5-fluorobenzo[d][1,3]dioxol-4-yl)-1-(2-isopropyl-4-methylpyridin-3-yl)pyrido[2,3-d]pyrimidin-2(1H)-one] | – | – | – | – | 50 to 100 | 10400 | 4660 | 1 | 5.98 | 10400 | < 10 | 10 to 50 | – |
| C=CC(=O)N1CCN(c2nc(=O)n(-c3c(C)ccnc3C(C)C)c3nc(-c4c(F)ccc5ccoc45)c(Cl)cc23)[C@@H](CC)C1 [Compound 99, 4-((S)-4-acryloyl-2-ethylpiperazin-1-yl)-6-chloro-7-(6-fluorobenzofuran-7-yl)-1-(2-isopropyl-4-methylpyridin-3-yl)pyrido[2,3-d]pyrimidin-2(1H)-one] | – | – | – | – | – | – | – | – | – | – | 50 to 100 | 100 to 500 | < 10 |
| C=CC(=O)N1CCN(c2nc(=O)n(-c3c(C)ccnc3C(C)C)c3nc(-c4c(F)c(F)cc5ccoc45)c(Cl)cc23)[C@@H](C)C1 [Compound 103, 4-((S)-4-acryloyl-2-methylpiperazin-1-yl)-6-chloro-7-(5,6-difluorobenzofuran-7-yl)-1-(2-isopropyl-4-methylpyridin-3-yl)pyrido[2,3-d]pyrimidin-2(1H)-one] | < 10 | – | 10 to 50 | – | – | 9420 | 3310 | 1 | 3.77 | 9400 | – | – | < 10 |
| C=CC(=O)N1C[C@H](C)N(c2nc(=O)n(-c3c(C)ccnc3C(C)C)c3nc(-c4c(F)c(F)cc5ccoc45)c(Cl)cc23)C[C@H]1C [Compound 104, 4-((2S,5R)-4-acryloyl-2,5-dimethylpiperazin-1-yl)-6-chloro-7-(5,6-difluorobenzofuran-7-yl)-1-(2-isopropyl-4-methylpyridin-3-yl)pyrido[2,3-d]pyrimidin-2(1H)-one] | < 10 | – | 10 to 50 | – | – | 13000 | 2110 | 2 | 2.46 | 13000 | – | – | < 10 |
